Experimental data as given in patent US12612407B2, “Imidazo[2,1-f][1,2,4]triazin-4-amine derivatives as TLR7 agonist” (BEIGENE, LTD., priority 2020, dated 2026).

What follows are compounds tested against T1, human TLR7 (Homo sapiens, UniProt Q9NYK1) (assay: HEK293-Blue hTLR7 Reporter Assay (QUANTI-BLUE, SEAP readout)). Details: HEK-Blue-hTLR7 cells, 24 hrs treatment, Table 1, B1-B232.
T1 construct: host or cells: HEK293 (HEK-Blue hTLR7)
T1 sequence (Q9NYK1 27-1049): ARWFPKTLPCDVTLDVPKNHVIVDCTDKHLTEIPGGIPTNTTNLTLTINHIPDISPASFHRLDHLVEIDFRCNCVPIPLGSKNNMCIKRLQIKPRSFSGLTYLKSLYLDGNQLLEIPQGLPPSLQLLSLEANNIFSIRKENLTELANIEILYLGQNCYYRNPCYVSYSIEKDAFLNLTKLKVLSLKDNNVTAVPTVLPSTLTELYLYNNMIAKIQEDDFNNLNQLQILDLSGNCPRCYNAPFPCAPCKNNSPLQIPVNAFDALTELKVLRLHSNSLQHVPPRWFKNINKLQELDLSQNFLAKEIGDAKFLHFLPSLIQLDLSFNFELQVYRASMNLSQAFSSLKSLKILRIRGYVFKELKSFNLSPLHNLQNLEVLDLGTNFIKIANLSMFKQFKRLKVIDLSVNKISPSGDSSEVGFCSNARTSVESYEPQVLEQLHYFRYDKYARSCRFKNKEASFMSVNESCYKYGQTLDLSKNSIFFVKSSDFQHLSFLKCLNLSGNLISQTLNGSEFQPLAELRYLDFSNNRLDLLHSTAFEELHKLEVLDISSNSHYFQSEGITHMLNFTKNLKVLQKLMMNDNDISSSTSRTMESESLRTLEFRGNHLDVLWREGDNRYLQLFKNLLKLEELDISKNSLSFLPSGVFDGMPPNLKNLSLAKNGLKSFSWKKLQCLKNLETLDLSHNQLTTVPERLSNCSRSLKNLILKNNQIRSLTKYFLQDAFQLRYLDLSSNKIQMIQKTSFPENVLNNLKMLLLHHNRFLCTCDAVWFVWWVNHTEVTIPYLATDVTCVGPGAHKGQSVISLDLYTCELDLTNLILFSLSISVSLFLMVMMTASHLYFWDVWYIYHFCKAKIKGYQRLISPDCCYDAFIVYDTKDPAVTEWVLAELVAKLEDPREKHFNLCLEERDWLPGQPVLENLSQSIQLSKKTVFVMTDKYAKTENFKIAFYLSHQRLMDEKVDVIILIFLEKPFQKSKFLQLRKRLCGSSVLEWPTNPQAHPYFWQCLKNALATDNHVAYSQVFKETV
Type: cell-based
Method: HEK293-Blue hTLR7 Reporter Assay: HEK-Blue-hTLR7 cell line (Invivogen, Cat. No. hkb-htlr7) was designed so that the expression of the secreted embryonic alkaline phosphatase (SEAP) was induced by activating NF-κ and AP-1 via stimulating human TLR7 with TLR7 agonists. HEK-Blue-hTLR7 cells were seeded at a density of 4×10^4 cells/well in a volume of 180 μL in a 96-well plate in DMEM (Cat. No. 11965-092) supplemented with 10% (v/v) heat-inactivated fetal bovine serum (FBS) (Gibco, 10099-1441), 100 U/ml penicillin and 100 μg/ml streptomycin (Gibco, 15140122) containing 50 U/mL penicillin, […] and 10% (v/v) heat-inactivated fetal bovine serum. The cells were settled for 5 hrs, then treated with increasing amounts of tested compounds at 37° C. for 24 hrs. Then 20 μL of the supernatant from each well was incubated with 180 μL Quanti-blue substrate solution at 37° C. for 10-30 mins before the activity of the SEAP was determined at 620-655 nm using a spectrophotometer. The EC50 value for each compound was calculated with GraphPad Prism software using the sigmoidal dose-response function.

`CCCCOc1nc(N)c2ncc(Cc3cc(C)c(C4CCNCC4)cn3)n2n1` [Compound B47, 2-butoxy-7-((4-methyl-5-(piperidin-4-yl)pyridin-2-yl)methyl)imidazo[2,1-f][1,2,4]triazin-4-amine] and `CCCCOc1nc(N)c2ncc(Cc3ccc(C4CCNCC4)c(C)c3)n2n1` [Compound B64, 2-butoxy-7-(3-methyl-4-(piperidin-4-yl)benzyl)imidazo[2,1-f][1,2,4]triazin-4-amine] are within 1.5-fold of each other in EC50: 462 nM for the first, 448 nM for the second.

Going from `CCCCOc1nc(N)c2ncc(Cc3cnc(N4CCNCC4)cc3C)n2n1` [Compound B48, 2-butoxy-7-((4-methyl-6-(piperazin-1-yl)pyridin-3-yl)methyl)imidazo[2,1-f][1,2,4]triazin-4-amine] to `CCCCOc1nc(N)c2ncc(Cc3ccc(N4CCNCC4)nc3C)n2n1` [Compound B53, 2-butoxy-7-((2-methyl-6-(piperazin-1-yl)pyridin-3-yl)methyl)imidazo[2,1-f][1,2,4]triazin-4-amine], the EC50 falls from 4770 nM to 803 nM (5.9-fold).

`CCCCOc1nc(N)c2ncc(Cc3cnc(N4CCN(C(=O)CCCN(C)C)CC4)c(C)c3)n2n1` [Compound B49, 1-(4-(5-((4-amino-2-butoxyimidazo[2,1-f][1,2,4]triazin-7-yl)methyl)-3-methylpyridin-2-yl)piperazin-1-yl)-4-(dimethylamino)butan-1-one] and `CCCCOc1nc(N)c2ncc(Cc3cnc(N4CCN(C(=O)CCCCN(C)C)CC4)c(C)c3)n2n1` [Compound B50, 1-(4-(5-((4-amino-2-butoxyimidazo[2,1-f][1,2,4]triazin-7-yl)methyl)-3-methylpyridin-2-yl)piperazin-1-yl)-5-(dimethylamino)pentan-1-one] are within 1.5-fold of each other in EC50: 124 nM for the first, 151 nM for the second.

`CCCCOc1nc(N)c2ncc(Cc3cnc(N4CCCC4)c(C)c3)n2n1` [Compound B51, 2-butoxy-7-((5-methyl-6-(pyrrolidin-1-yl)pyridin-3-yl)methyl)imidazo[2,1-f][1,2,4]triazin-4-amine] and `CCCCOc1nc(N)c2ncc(Cc3cnc(N4CCOCC4)c(C)c3)n2n1` [Compound B52, 2-butoxy-7-((5-methyl-6-morpholinopyridin-3-yl)methyl)imidazo[2,1-f][1,2,4]triazin-4-amine] cannot be ordered by EC50: over 10000 nM for the first, over 10000 nM for the second.

Going from `CCCCOc1nc(N)c2ncc(Cc3ccc(C4CCNCC4)nc3C)n2n1` [Compound B54, 2-butoxy-7-((2-methyl-6-(piperidin-4-yl)pyridin-3-yl)methyl)imidazo[2,1-f][1,2,4]triazin-4-amine] to `CCCCOc1nc(N)c2ncc(Cc3cnc(N4CCC(N)CC4)c(C)c3)n2n1` [Compound B60, 7-((6-(4-aminopiperidin-1-yl)-5-methylpyridin-3-yl)methyl)-2-butoxyimidazo[2,1-f][1,2,4]triazin-4-amine], the EC50 falls from 158 nM to 50 nM (3.2-fold).

Compared with `CCCCOc1nc(N)c2ncc(Cc3cnc(N4CC(C)NC(C)C4)c(C)c3)n2n1` (centres unmarked) [Compound B55, 2-butoxy-7-((6-(3,5-dimethylpiperazin-1-yl)-5-methylpyridin-3-yl)methyl)imidazo[2,1-f][1,2,4]triazin-4-amine], `CCCCOc1nc(N)c2ncc(Cc3ccc(N4CC(C)NC(C)C4)c(C)c3)n2n1` (centres unmarked) [Compound B61, 2-butoxy-7-(4-(3,5-dimethylpiperazin-1-yl)-3-methylbenzyl)imidazo[2,1-f][1,2,4]triazin-4-amine] is 3.4-fold higher in EC50: 196 nM for the first, 660 nM for the second. The first is the more potent here.

Compared with `CCCCOc1nc(N)c2ncc(Cc3cnc(N4CCN(C(=O)C5CCNCC5)CC4)c(C)c3)n2n1` [Compound B56, (4-(5-((4-amino-2-butoxyimidazo[2,1-f][1,2,4]triazin-7-yl)methyl)-3-methylpyridin-2-yl)piperazin-1-yl)(piperidin-4-yl)methanone], `CCCCOc1nc(N)c2ncc(Cc3cnc(N4CCN(C(=O)[C@@H]5CCCN5)CC4)c(C)c3)n2n1` [Compound B68, (S)-4-amino-2-butoxy-7-((5-methyl-6-(4-prolylpiperazin-1-yl)pyridin-3-yl)methyl)imidazo[2,1-f][1,2,4]triazine] is 4-fold lower in EC50: 422 nM for the first, 106 nM for the second.

Going from `CCCCOc1nc(N)c2ncc(Cc3cnc(N4CCN(C(C)=O)CC4)c(C)c3)n2n1` [Compound B57, 1-(4-(5-((4-amino-2-butoxyimidazo[2,1-f][1,2,4]triazin-7-yl)methyl)-3-methylpyridin-2-yl)piperazin-1-yl)ethan-1-one] to `CCCCOc1nc(N)c2ncc(Cc3cnc(N4CCN(C(=O)[C@@H](N)C(C)C)CC4)c(C)c3)n2n1` [Compound B70, (S)-2-amino-1-(4-(5-((4-amino-2-butoxyimidazo[2,1-f][1,2,4]triazin-7-yl)methyl)-3-methylpyridin-2-yl)piperazin-1-yl)-3-methylbutan-1-one], the EC50 falls from 3800 nM to 212 nM (18-fold). The second is the more potent here.

Compared with `CCCCOc1nc(N)c2ncc(Cc3cnc(N4CCN(C(=O)CN(C)C(C)=O)CC4)c(C)c3)n2n1` [Compound B58, N-(2-(4-(5-((4-amino-2-butoxyimidazo[2,1-f][1,2,4]triazin-7-yl)methyl)-3-methylpyridin-2-yl)piperazin-1-yl)-2-oxoethyl)-N-methylacetamide], `CCCCOc1nc(N)c2ncc(Cc3cnc(N4CCN(CC(=O)N(C)C)CC4)c(C)c3)n2n1` [Compound B72, 2-(4-(5-((4-amino-2-butoxyimidazo[2,1-f][1,2,4]triazin-7-yl)methyl)-3-methylpyridin-2-yl)piperazin-1-yl)-N,N-dimethylacetamide] is 6.6-fold lower in EC50: 3250 nM for the first, 493 nM for the second.

Compared with `CCCCOc1nc(N)c2ncc(Cc3cnc(N4CCC(CN(C)C)CC4)c(C)c3)n2n1` [Compound B59, 2-butoxy-7-((6-(4-((dimethylamino)methyl)piperidin-1-yl)-5-methylpyridin-3-yl)methyl)imidazo[2,1-f][1,2,4]triazin-4-amine], `CCCCOc1nc(N)c2ncc(Cc3cnc(N4CCN(C(=O)[C@@H](N)[C@@H](C)CC)CC4)c(C)c3)n2n1` [Compound B67, (2S,3S)-2-amino-1-(4-(5-((4-amino-2-butoxyimidazo[2,1-f][1,2,4]triazin-7-yl)methyl)-3-methylpyridin-2-yl)piperazin-1-yl)-3-methylpentan-1-one] is 17-fold higher in EC50: 20 nM for the first, 336 nM for the second. The first is the more potent here.

Compared with `COc1nc(N)c2ncc(Cc3cnc(N4CCNCC4)c(C)c3)n2n1` [Compound B62, 2-methoxy-7-((5-methyl-6-(piperazin-1-yl)pyridin-3-yl)methyl)imidazo[2,1-f][1,2,4]triazin-4-amine], `CCOc1nc(N)c2ncc(Cc3cnc(N4CCNCC4)c(C)c3)n2n1` [Compound B63, 2-ethoxy-7-((5-methyl-6-(piperazin-1-yl)pyridin-3-yl)methyl)imidazo[2,1-f][1,2,4]triazin-4-amine] is lower in EC50: over 10000 nM for the first, 900 nM for the second. The second is the more potent here.

Compared with `CCCC(C)Oc1nc(N)c2ncc(Cc3cnc(N4CCNCC4)c(C)c3)n2n1` (centres unmarked) [Compound B65, 7-((5-methyl-6-(piperazin-1-yl)pyridin-3-yl)methyl)-2-(pentan-2-yloxy)imidazo[2,1-f][1,2,4]triazin-4-amine], `Cc1cc(Cc2cnc3c(N)nc(OC(C)C)nn23)cnc1N1CCNCC1` [Compound B66, 2-isopropoxy-7-((5-methyl-6-(piperazin-1-yl)pyridin-3-yl)methyl)imidazo[2,1-f][1,2,4]triazin-4-amine] is 5.6-fold higher in EC50: 26 nM for the first, 146 nM for the second.

Compared with `CCCCOc1nc(N)c2ncc(Cc3cnc(N4CCN(C(=O)[C@@H](N)CC(C)C)CC4)c(C)c3)n2n1` [Compound B69, (S)-2-amino-1-(4-(5-((4-amino-2-butoxyimidazo[2,1-f][1,2,4]triazin-7-yl)methyl)-3-methylpyridin-2-yl)piperazin-1-yl)-4-methylpentan-1-one], `CCCCNc1nc(N)c2ncc(Cc3cnc(N4CCN(C(=O)CN(C)C)CC4)c(C)c3)n2n1` [Compound B71, 1-(4-(5-((4-amino-2-(butylamino)imidazo[2,1-f][1,2,4]triazin-7-yl)methyl)-3-methylpyridin-2-yl)piperazin-1-yl)-2-(dimethylamino)ethan-1-one] is 10-fold lower in EC50: 313 nM for the first, 31 nM for the second.
